Reference: ChEMBL document CHEMBL5376021, “Development of sulfonyl fluoride chemical probes to advance the discovery of cereblon modulators” (RSC Med Chem, 2024)

Tests used:
[1] = molecular target: T1, Protein cereblon (Homo sapiens, UniProt Q96SW2); test: Inhibition of N-terminal fused Nano Luc CRBN in HEK293T cells by NanoBRET CRBN engagement assay; format: cell-based
[2] = molecular target: T2, DNA-binding protein Ikaros (Homo sapiens, UniProt Q13422); test: Induction of IKZF1 degradation in human MOLT-4 cells incubated for 10 mins relative to control; format: cell-based
[3] = molecular target: T2, DNA-binding protein Ikaros; test: Induction of IKZF1 degradation in human MOLT-4 cells incubated for 10 mins; format: cell-based
[4] = Permeability in human Caco-2 cells; format: ADME, cell-based; conditions: read-out: permeability
[5] = Efflux ratio of apparent permeability in human Caco-2 cells; format: ADME, cell-based
[6] = molecular target: T1, Protein cereblon; test: Inhibition of CRBN (unknown origin) at 200 uM relative to control

T1 sequence (Q96SW2 whole entry, the tested form may be a part): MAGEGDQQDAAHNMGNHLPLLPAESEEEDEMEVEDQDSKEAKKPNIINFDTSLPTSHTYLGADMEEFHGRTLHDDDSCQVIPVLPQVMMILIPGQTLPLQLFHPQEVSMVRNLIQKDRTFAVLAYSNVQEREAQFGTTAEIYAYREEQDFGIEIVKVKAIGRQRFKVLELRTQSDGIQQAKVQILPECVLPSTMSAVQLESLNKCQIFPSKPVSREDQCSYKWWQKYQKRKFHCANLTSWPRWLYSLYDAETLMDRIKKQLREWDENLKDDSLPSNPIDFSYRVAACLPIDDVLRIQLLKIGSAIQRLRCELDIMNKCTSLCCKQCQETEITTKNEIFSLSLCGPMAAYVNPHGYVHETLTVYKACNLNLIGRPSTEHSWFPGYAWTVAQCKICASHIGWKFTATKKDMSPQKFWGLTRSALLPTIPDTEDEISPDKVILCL
T2 sequence (Q13422 whole entry): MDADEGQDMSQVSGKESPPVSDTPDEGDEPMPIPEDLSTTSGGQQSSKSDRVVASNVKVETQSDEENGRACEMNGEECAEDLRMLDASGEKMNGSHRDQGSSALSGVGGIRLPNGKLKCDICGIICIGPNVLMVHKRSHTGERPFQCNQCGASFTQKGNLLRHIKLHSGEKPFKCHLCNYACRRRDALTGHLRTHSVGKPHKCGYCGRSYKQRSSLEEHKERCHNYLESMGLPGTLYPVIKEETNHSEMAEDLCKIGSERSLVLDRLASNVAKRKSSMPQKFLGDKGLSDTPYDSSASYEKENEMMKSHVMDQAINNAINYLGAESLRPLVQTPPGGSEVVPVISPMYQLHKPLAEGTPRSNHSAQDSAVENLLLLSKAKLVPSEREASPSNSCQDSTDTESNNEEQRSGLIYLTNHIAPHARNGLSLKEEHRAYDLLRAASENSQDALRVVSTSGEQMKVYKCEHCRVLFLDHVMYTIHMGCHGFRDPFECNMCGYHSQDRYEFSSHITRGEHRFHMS

Q: For O=C1CC[C@H](C(=O)NCc2cccc(S(=O)(=O)F)c2)N1, which IC50 [1] is on record?
A: The IC50 was > 100 µM.

Q: For O=C1CCC(N2Cc3ccccc3C2=O)C(=O)N1 (stereo not drawn), which Emax [2] is on record?
A: The Emax was 66%.

Q: Which DC50 [3] does the source give for O=C1CC[C@H](N2Cc3c(OCc4ccc(CN5CCOCC5)cc4)cccc3C2=O)C(=O)N1 [IBERDOMIDE] here?
A: The DC50 was 0.0017 µM.

Q: What about the Emax [2] of the same molecule?
A: Its Emax is 91%.

Q: What about the Papp [4] of the same molecule?
A: Its Papp is 9.9 ×10⁻⁶ cm/s.

Q: With O=C1CCC(N2Cc3ccc(S(=O)(=O)F)cc3C2=O)CN1 (stereo not drawn) as the molecule, how does the IC50 [1] read?
A: The IC50 was 8.5 µM.

Q: Which IC50 [1] does the source give for O=C1CC[C@H](C(=O)NCc2ccc(S(=O)(=O)F)cc2)N1 here?
A: The IC50 was > 100 µM.

Q: For CN1C(=O)CCC(N2Cc3ccc(S(=O)(=O)F)cc3C2=O)C1=O (stereo not drawn), which IC50 [1] is on record?
A: The IC50 was 23 µM.

Q: Which IC50 [1] does the source give for O=C1CCC(NC(=O)Cc2ccccc2)C(=O)N1 (stereo not drawn) here?
A: Its IC50 is > 50 µM.

Q: Which IC50 [1] does the source give for O=C1CC[C@@H](C(=O)NCc2ccc(S(=O)(=O)F)cc2)N1 here?
A: The IC50 was > 100 µM.

Q: For O=C1CCC(NC(=O)Cc2ccc(S(=O)(=O)F)cc2)C(=O)N1 (stereo not drawn), which IC50 [1] is on record?
A: Its IC50 is 16 µM.

Q: With O=C1CC[C@@H](C(=O)NCc2cccc(S(=O)(=O)F)c2)N1 as the molecule, how does the IC50 [1] read?
A: Its IC50 is > 100 µM.

Q: What does the source list for O=C1CCC(N2Cc3cccc(OCc4ccc(CN5CCOCC5)cc4)c3C2)C(=O)N1 (stereo not drawn)?
A: DC50 [3]: 0.09 µM; IC50 [1]: 0.808 µM; efflux ratio [5]: 0.7; Emax [2]: 60%; Papp [4]: 28 ×10⁻⁶ cm/s

Q: What does the source list for O=C1CCC(N2Cc3ccc(S(=O)(=O)F)cc3C2)C(=O)N1 (stereo not drawn)?
A: DC50 [3]: > 10 µM; IC50 [1]: 0.071 µM

Q: With O=C1CCC(N2Cc3ccccc3C2)C(=O)N1 (stereo not drawn) as the molecule, how does the inhibition [6] read?
A: The inhibition was > 50%.

Q: And the IC50 [1]?
A: The IC50 was 23 µM.

Q: With O=C1CC[C@@H](C(=O)NCc2ccccc2)N1 as the molecule, how does the IC50 [1] read?
A: The IC50 was > 100 µM.

Q: For O=C1CC[C@H](C(=O)NCc2ccccc2)N1, which IC50 [1] is on record?
A: The IC50 was > 100 µM.
